Assay results as given in the supplement of paper PMC12137928.
Counter-ions that a name gives are not always drawn.

Columns and labels:
HCT116 [1] = details: 72 h
Outline: (§1)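 IC50 and maximal efficacy were derived from four-parameter Hill curve fits. The underlying CellTiter-Glo luminescence was scaled so that vehicle equals 0% and positive control equals -100%, and was then pattern-corrected. HCT116 cells had been seeded in 1536-well plates at 250 per well.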

HCT116 [2] = assay: efficacy (maximum % inhibition of viability vs DMSO); higher = more cytotoxic; details: 72 h
Outline: as §1

Row | Structure (SMILES) | IC50 cell viability (HCT116 [1]; ICRF193 0 nM) | IC50 cell viability (HCT116 [1]; ICRF193 200 nM) | efficacy (HCT116 [2]; ICRF193 200 nM) | efficacy (HCT116 [2]; ICRF193 0 nM)
1 | CCCCCCCCCCCCC[N+](C)(C)Cc1ccccc1 [BENZALKONIUM CHLORIDE] | 20.6 µM | 23.1 µM | 124% | 133%
2 | O[C@@H](COc1cccc2ncccc12)CN1CCN([C@@H]2c3ccccc3[C@@H]3[C@H](c4ccccc42)C3(F)F)CC1 [Zosuquidar trihydrochloride] | 23.1 µM | 20.6 µM | 105% | 141%
3 | Cc1cc(C(C#N)c2ccc(Cl)cc2)c(Cl)cc1NC(=O)c1cc(I)cc(I)c1O (centres undefined) [Closantel] | 9.2 µM | 10.3 µM | 77.1% | 70.3%
4 | CCN(CC)c1ccc(C(=C2C=CC(=[N+](CC)CC)C=C2)c2cc(S(=O)(=O)O)ccc2S(=O)(=O)[O-])cc1 [Isosulfan blue] | 29.1 µM | 18.3 µM | 78.9% | 76.5%
5 | O=C(O)C[C@H](O)C[C@H](O)/C=C/c1c(C2CC2)nc2ccccc2c1-c1ccc(F)cc1 [Pitavastatin Calcium] | 7.3 µM | 3.66 µM | 110% | 100%
6 | COc1cc2nccc(Oc3ccc(NC(=O)C4(C(=O)Nc5ccc(F)cc5)CC4)cc3)c2cc1OC [Cabozantinib] | 20.6 µM | 16.4 µM | 69.8% | 58.4%
7 | CC(=O)O[C@@]12CO[C@@H]1C[C@H](O)[C@@]1(C)C(=O)[C@H](O)C3=C(C)[C@@H](OC(=O)[C@H](O)[C@@H](NC(=O)OC(C)(C)C)c4ccccc4)C[C@@](O)([C@@H](OC(=O)c4ccccc4)[C@H]21)C3(C)C [Docetaxel] | 0.0103 µM | 0.0146 µM | 56.5% | 60.8%
8 | COc1ccc(CN2CCN(C(c3ccc(F)cc3)c3ccc(F)cc3)CC2)c(OC)c1OC [Lomerizine dihydrochloride] | 20.6 µM | 23.1 µM | 104% | 130%
9 | CC(C)COc1ccc(CNC(=O)N(Cc2ccc(F)cc2)C2CCN(C)CC2)cc1 [Pimavanserin] | 18.3 µM | 18.3 µM | 97.4% | 96.9%
10 | C#C[C@]1(OC(C)=O)CC[C@H]2[C@@H]3CCC4=CC(=NO)CC[C@@H]4[C@H]3CC[C@@]21CC (mixture of isomers) [Norgestimate] | 18.3 µM | 29.1 µM | 102% | 84%
11 | CN(C)[C@@H](CCOc1cccc2ccccc12)c1ccccc1 [Dapoxetine] | 29.1 µM | 23.1 µM | 70.9% | 71.4%
12 | CNC(=O)c1ccccc1Sc1ccc2c(/C=C/c3ccccn3)n[nH]c2c1 [Axitinib] | 23.1 µM | 20.6 µM | 62.1% | 57.5%
13 | C#C[C@]1(O)CC[C@H]2[C@@H]3CCC4=CC(=O)CCC4=C3C=C[C@@]21CC [Gestrinone] | 25.9 µM | > 45.8 µM | – | 56.7%
14 | C=C1/C(=C\C=C2/CCC[C@]3(C)[C@@H]([C@H](C)/C=C/[C@@H](O)C4CC4)CC[C@@H]23)C[C@@H](O)C[C@@H]1O [Calcipotriene] | > 45.8 µM | 20.6 µM | 54% | –
15 | C=CC(=O)Nc1cc(Nc2nccc(-c3cn(C)c4ccccc34)n2)c(OC)cc1N(C)CCN(C)C [Osimertinib mesylate] | 23.1 µM | 16.4 µM | 101% | 142%
16 | CC[C@]1(O)C[C@@H]2CN(CCc3c([nH]c4ccccc34)[C@@](C(=O)OC)(c3cc4c(cc3OC)N(C)[C@H]3[C@@](O)(C(=O)OC)[C@H](OC(C)=O)[C@]5(CC)C=CCN6CC[C@]43[C@@H]65)C2)C1 [Vinblastine sulfate] | 0.082 µM | 0.058 µM | 82.2% | 75.8%
17 | CCCC(=O)Nc1ncnc2c1ncn2[C@@H]1O[C@@H]2COP(=O)(O)O[C@H]2[C@H]1OC(=O)CCC [BUCLADESINE] | 25.9 µM | > 45.8 µM | – | 48.8%
18 | O=c1[nH]c(=O)n([C@H]2C[C@H](O)[C@@H](CO)O2)cc1C(F)(F)F [Trifluridine] | 29.1 µM | 8.2 µM | 59% | 49.1%
19 | N=C(N)N/N=C/c1c(Cl)cccc1Cl [Guanabenz] | 23.1 µM | > 45.8 µM | – | 45.5%
20 | Cc1cncc(CN2CCC(=C3c4ccc(Cl)cc4CCc4cccnc43)CC2)c1 [Rupatadine (Fumarate)] | 18.3 µM | 20.6 µM | 88.3% | 56.6%
21 | COc1cc2nc(N3CCN(C(=O)c4ccco4)CC3)nc(N)c2cc1OC [Prazosin] | > 45.8 µM | 7.99 µM | 42.5% | –
22 | Oc1c(Cl)cc(Cl)cc1Sc1cc(Cl)cc(Cl)c1O [Bithionol] | 18.3 µM | 20.6 µM | 108% | 92.2%
23 | COc1cccc2c1C(=O)c1c(O)c3c(c(O)c1C2=O)C[C@@](O)(C(=O)CO)C[C@@H]3O[C@H]1C[C@H](N2CCO[C@H](OC)C2)[C@H](O)[C@H](C)O1 [Nemorubicin] | 0.0259 µM | 0.0291 µM | 76.1% | 68.6%
24 | N#CC(c1ccc(Cl)cc1)c1c(Cl)cc(-n2ncc(=O)[nH]c2=O)cc1Cl (centres undefined) [Diclazuril] | 20.6 µM | 20.6 µM | 56.7% | 46.5%
25 | O=C(Nc1ccc(Cl)cc1)Nc1ccc(Cl)c(Cl)c1 [Triclocarban] | 18.3 µM | 13 µM | 104% | 102%
26 | CN(C)C(=S)SC(=S)N(C)C [Tetramethylthiuram monosulfide] | > 45.8 µM | 3.66 µM | 40.7% | –
27 | CC(=O)Oc1cc(C)c(OC(C)=O)c2ccccc12 [Acetomenaphthone] | 44.7 µM | 50.1 µM | 108% | 107%
28 | CC[C@@H](C(=O)[C@@H](C)[C@@H](O)[C@H](C)[C@@H]1O[C@@H]([C@@H](CC)C(=O)O)CC[C@@H]1C)[C@H]1O[C@]2(C=C[C@@H](O)[C@]3(CC[C@@](C)([C@H]4CC[C@](O)(CC)[C@H](C)O4)O3)O2)[C@H](C)C[C@@H]1C [SALINOMYCIN, SODIUM] | 2.31 µM | 1.3 µM | 100% | 104%

Continued, in another order:

Row | IC50 cell viability (HCT116 [1]; ICRF193 0 nM) | IC50 cell viability (HCT116 [1]; ICRF193 200 nM) | Structure (SMILES) | efficacy (HCT116 [2]; ICRF193 200 nM) | efficacy (HCT116 [2]; ICRF193 0 nM)
29 | > 45.8 µM | 29.1 µM | C=CCOC(Cn1ccnc1)c1ccc(Cl)cc1Cl (centres undefined) [Imazalil sulfate] | 44.8% | –
30 | 11.6 µM | 20.6 µM | Cc1ccc(NC(=O)c2ccc(CN3CCN(C)CC3)cc2)cc1Nc1nc(-c2cccnc2)cs1 [Masitinib] | 66.8% | 43.6%
31 | 20.6 µM | 0.92 µM | COC(=O)Nc1nc2cc(C(=O)c3ccccc3)ccc2[nH]1 [Mebendazole] | 61.9% | 55.3%
32 | > 45.8 µM | 20.6 µM | CCCCC(=O)O[C@H]1CC[C@H]2[C@@H]3CCc4cc(O)ccc4[C@H]3CC[C@]12C [Estradiol valerate] | 49.3% | –
33 | 14.6 µM | 18.3 µM | CN(C)C(=O)C(CCN1CCC(O)(c2ccc(Cl)cc2)CC1)(c1ccccc1)c1ccccc1 [Loperamide hydrochloride] | 54.9% | 59.4%
34 | > 45.8 µM | 20.6 µM | CN(C)CCCN1c2ccccc2Sc2ccccc21 [Promazine hydrochloride] | 46.3% | –
35 | > 45.8 µM | 18.3 µM | O=C1C(O)=C([C@H]2CC[C@H](c3ccc(Cl)cc3)CC2)C(=O)c2ccccc21 [Atovaquone] | 54.1% | –
36 | 18.3 µM | 29.1 µM | Cc1cc(CC(C)CC(C)(C)C)n(O)c(=O)c1 (centres undefined) [Piroctone Olamine] | 87.4% | 81%
37 | > 45.8 µM | 16.4 µM | O=c1c(-c2ccc(O)cc2)coc2cc(O)cc(O)c12 [Genistein] | 42.9% | –
38 | 18.3 µM | 20.6 µM | CCc1cc2c(cc1CC)CC(NC[C@H](O)c1ccc(O)c3[nH]c(=O)ccc13)C2 [Indacaterol (maleate)] | 91.6% | 82.9%
39 | > 45.8 µM | 20.6 µM | CC(C)c1nc(CN(C)C(=O)N[C@H](C(=O)N[C@@H](Cc2ccccc2)C[C@H](O)[C@H](Cc2ccccc2)NC(=O)OCc2cncs2)C(C)C)cs1 [Ritonavir] | 57.4% | –
40 | > 45.8 µM | 29.1 µM | O=C1[C@@H]2[C@H]3CC[C@H](C3)[C@@H]2C(=O)N1C[C@@H]1CCCC[C@H]1CN1CCN(c2nsc3ccccc23)CC1 [Lurasidone (Hydrochloride)] | 46.3% | –
41 | > 45.8 µM | 18.3 µM | O=C(CCCN1CCC(n2c(=S)[nH]c3ccccc32)CC1)c1ccc(F)cc1 [Timiperone] | 46.1% | –
42 | > 45.8 µM | 16.4 µM | CCOC(=O)C1=C(COCCN)NC(C)=C(C(=O)OC)C1c1ccccc1Cl (centres undefined) [Amlodipine] | 88.3% | –
43 | 11.6 µM | 8.2 µM | CCCCCCCCCCCCCC[n+]1ccc(C)cc1 [Miripirium chloride] | 70% | 104%
44 | 0.0082 µM | 0.00651 µM | C#CCC(Cc1cnc2nc(N)nc(N)c2n1)c1ccc(C(=O)N[C@@H](CCC(=O)O)C(=O)O)cc1 (some centres undefined) [Pralatrexate] | 85.6% | 84.8%
45 | 29.1 µM | 23.1 µM | Cc1nc(Nc2ncc(C(=O)Nc3c(C)cccc3Cl)s2)cc(N2CCN(CCO)CC2)n1 [Dasatinib] | 105% | 74.6%
46 | 29.1 µM | 16.4 µM | CC(=O)c1c(C)c2cnc(Nc3ccc(N4CCNCC4)cn3)nc2n(C2CCCC2)c1=O [Palbociclib] | 104% | 98.3%
47 | 0.0183 µM | 0.0164 µM | CC(C)C[C@H](NC(=O)[C@H](CCc1ccccc1)NC(=O)CN1CCOCC1)C(=O)N[C@@H](Cc1ccccc1)C(=O)N[C@@H](CC(C)C)C(=O)[C@@]1(C)CO1 [Carfilzomib] | 89.7% | 86%
48 | > 45.8 µM | 20.6 µM | CC(C)(C)NC[C@H](O)COc1ccccc1C1CCCC1 [Penbutolol sulfate] | 50% | –
49 | 11.6 µM | 16.4 µM | CCCCCCCCCCCCCCCCCCNC(=O)OC1CCN(C(=O)OC[C@H](COC(=O)N(Cc2cccc[n+]2CC)C(=O)c2ccccc2OC)OC)CC1 [Minopafant] | 124% | 111%
50 | > 45.8 µM | 20.6 µM | CC[C@H](C)C(=O)O[C@H]1C[C@@H](C)C=C2C=C[C@H](C)[C@H](CC[C@@H]3C[C@@H](O)CC(=O)O3)[C@H]21 [Lovastatin] | 46.5% | –
51 | 23.1 µM | 29.1 µM | C=CC(=O)N1CCC[C@@H](n2nc(-c3ccc(Oc4ccccc4)cc3)c3c(N)ncnc32)C1 | 72.8% | 47.6%
52 | 18.3 µM | 23.1 µM | CC/C(=C(/CC)c1ccc(O)cc1)c1ccc(O)cc1 [Diethylstilbestrol] | 47.5% | 52.4%
53 | 11.6 µM | 16.4 µM | CCOC(=O)[C@@H](N)Cc1ccc(-c2cc(O[C@H](c3ccc(Cl)cc3-n3ccc(C)n3)C(F)(F)F)nc(N)n2)cc1 [LX1606 (Hippurate)] | 102% | 64.7%
54 | 18.3 µM | 20.6 µM | O=C(c1ccc(OCCN2CCCCC2)cc1)c1c(-c2ccc(O)cc2)sc2cc(O)ccc12 [Raloxifene hydrochloride] | 88.8% | 98.1%
